Results published in patent publication US8563729B2, “Thienopyridone derivatives as AMP-activated protein kinase (AMPK) activators” (Merck Patent GmbH, priority 2008, dated 2013).

Experiments:
[1] = biological target: T1, AMPK protein (recombinant α1β1γ2) (Homo sapiens, UniProt Q13131+Q9Y478); assay: AMPK enzymatic activity (Delfia, AMARA peptide substrate); format: biochemical; conditions: compound 30 μM vs AMP 30 μM; 125 μM ATP; ratio 90% or higher = direct activator
T1 construct: made in house; host or cells: E. coli
T1 sequence (Q13131 whole entry): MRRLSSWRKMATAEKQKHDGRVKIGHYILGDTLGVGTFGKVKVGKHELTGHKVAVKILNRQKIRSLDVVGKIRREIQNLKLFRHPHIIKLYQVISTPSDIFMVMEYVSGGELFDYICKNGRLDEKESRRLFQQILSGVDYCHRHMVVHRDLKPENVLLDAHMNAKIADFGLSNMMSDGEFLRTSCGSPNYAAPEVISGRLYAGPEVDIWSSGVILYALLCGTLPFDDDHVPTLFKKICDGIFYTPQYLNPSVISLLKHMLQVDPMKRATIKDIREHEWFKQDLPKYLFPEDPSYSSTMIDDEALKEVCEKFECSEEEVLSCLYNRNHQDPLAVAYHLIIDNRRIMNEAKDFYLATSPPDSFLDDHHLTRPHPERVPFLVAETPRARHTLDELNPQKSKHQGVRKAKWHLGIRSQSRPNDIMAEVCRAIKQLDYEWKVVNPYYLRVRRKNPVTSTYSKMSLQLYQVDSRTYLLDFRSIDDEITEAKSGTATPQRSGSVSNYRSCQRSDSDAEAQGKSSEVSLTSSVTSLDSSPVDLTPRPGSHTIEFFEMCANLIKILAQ
T1 sequence (Q9Y478 whole entry): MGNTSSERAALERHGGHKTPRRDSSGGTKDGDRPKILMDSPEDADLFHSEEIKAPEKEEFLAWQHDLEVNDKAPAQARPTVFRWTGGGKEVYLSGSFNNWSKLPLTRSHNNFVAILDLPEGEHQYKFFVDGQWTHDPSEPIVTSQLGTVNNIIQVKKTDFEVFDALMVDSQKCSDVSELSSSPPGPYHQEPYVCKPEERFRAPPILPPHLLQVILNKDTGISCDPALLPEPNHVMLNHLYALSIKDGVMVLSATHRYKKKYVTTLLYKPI
T1 sequence (Q9UGJ0 whole entry partner): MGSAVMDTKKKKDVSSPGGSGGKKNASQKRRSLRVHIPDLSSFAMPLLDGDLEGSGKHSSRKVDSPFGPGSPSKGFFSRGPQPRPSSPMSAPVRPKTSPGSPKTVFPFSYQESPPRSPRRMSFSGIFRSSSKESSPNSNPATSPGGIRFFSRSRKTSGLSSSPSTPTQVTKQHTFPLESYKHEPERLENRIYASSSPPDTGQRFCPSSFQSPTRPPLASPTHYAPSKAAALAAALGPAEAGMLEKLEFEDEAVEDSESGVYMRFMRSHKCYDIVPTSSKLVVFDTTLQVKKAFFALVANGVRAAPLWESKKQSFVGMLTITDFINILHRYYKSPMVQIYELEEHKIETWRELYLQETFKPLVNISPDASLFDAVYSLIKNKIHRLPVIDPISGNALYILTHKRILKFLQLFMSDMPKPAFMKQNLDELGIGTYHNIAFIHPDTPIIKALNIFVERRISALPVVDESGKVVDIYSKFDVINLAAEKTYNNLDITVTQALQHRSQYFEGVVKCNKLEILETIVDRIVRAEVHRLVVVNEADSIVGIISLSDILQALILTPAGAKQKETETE
Procedure: The following biological test allows the determination of the efficacy of such compounds of formula (I) onto AMPK protein (recombinant α1β1γ2).
Human recombinant AMPK enzyme was expressed in E. Coli and was reactivated in vitro by LKB1 prior to enzyme activity determination.
AMPK enzyme activities were assayed by using A Delfia technology. AMPK enzyme activities were carried out in microtiter plates (50 mM Hepes buffer, pH 7.4 with 125 μM ATP respectively) in the presence of a synthetic peptide substrate (AMARAASAAALARRR, the “AMARA” peptide) and activators in serial dilutions. Reactions were initiated by the addition of AMPK (50-100 ng). Following mixing, the plates were incubated for 30 min at room temperature. Enzyme activity was assayed by using an anti-phosphoserine antibody to measure the quantity of phosphate incorporated into the AMARAA.
(§1) N°: Number of the molecule
Activity: Ratio between the % of control (basal activity) of compound of formula (I) at 30 μM and the % of control (basal activity) of AMP (natural substrate) at 30 μM.
Compounds of formula (I) in the table II are considered as direct activator of AMPK if the ratio is 90% or higher.

[2] = test system: H-2 Kb cells; assay: Glucose uptake in H-2 Kb cells (in vitro cellular test); format: cell-based, mouse; conditions: H-2 Kb cells differentiated in muscle, 4 hours incubation, 2-deoxy-D-[1,2 3H] glucose uptake 10 min
Procedure: Glucose Uptake in H-2 Kb Cells (In Vitro Cellular Test)
The following cellular test allows the determination of the effect of AMPK activators such as compounds of formula (I) onto glucose uptake in a muscle cellular model.
H-1-2 Kb cells derived from heterozygous H-2 Kb tsA58 transgenic mouse were grown in 24-well in plates coated with matrigel and were cultured at 33° C. for 4 days under permissive conditions, as described previously by Fryer et al. (Diabetes 49 (12): 1978, 2000).
For differentiation in muscle, cells were switched to non-permissive culture conditions (37° C. in the absence of interferon-γ). After 3 days, cells were incubated for 4 hours in DMEM 1 g/l glucose culture medium containing different concentrations of the tested molecules. Then glucose uptake was measured by incubating the cells for 10 min with radiolabelled 2-deoxy-D-[1,2 ^3H] glucose. Glucose uptake was terminated by rapidly washing the plates 2 times with ice-cold NaCl 0.9%. The cells were then solubilized in 0.1N NaOH for 30 min. Radioactivity was determined by liquid scintillation counting.
as §1
Activity (table III): Concentration of compound (I) for a glucose uptake equal or higher to glucose uptake induced by insulin (170 nM)
^++ or **concentration of compound (I) ≦10 micro Molar
^+ or *concentration of compound (I) >10 micro Molar

| Structure (SMILES) | activity: Ratio between the % of control (basal activity) of compound of formula (I) at 30 μM and the % of control (basal activity) of AMP at 30 μM [1] | Activity (table III): Concentration of compound (I) for a glucose uptake equal or higher to glucose uptake induced by insulin (170 nM) [2] |
| --- | --- | --- |
| O=c1[nH]c2sc(Cl)c(-c3ccc(F)c(F)c3)c2c(O)c1-c1ccccc1 [Compound 100] | 103% | ** (^++ or **concentration of compound (I) ≦10 micro Molar) |
| Cc1ccc(-c2c(Cl)sc3[nH]c(=O)c(-c4ccccc4)c(O)c23)c(O)c1 [Compound 104] | 236% | * (^+ or *concentration of compound (I) >10 micro Molar) |
| O=c1[nH]c2sc(Cl)c(-c3cc(F)ccc3O)c2c(O)c1-c1ccccc1 [Compound 108] | 305% | * (^+ or *concentration of compound (I) >10 micro Molar) |
| O=c1[nH]c2sc(Cl)c(-c3ccc(O)c(F)c3)c2c(O)c1-c1ccccc1 [Compound 109] | 200% | ** (^++ or **concentration of compound (I) ≦10 micro Molar) |
| O=c1[nH]c2sc(Cl)c(-c3ccc(F)cc3O)c2c(O)c1-c1ccccc1 [Compound 111] | 136% | * (^+ or *concentration of compound (I) >10 micro Molar) |
| COc1ccc(-c2c(Cl)sc3[nH]c(=O)c(-c4ccccc4)c(O)c23)c(F)c1 [Compound 115] | 118% | ** (^++ or **concentration of compound (I) ≦10 micro Molar) |
| O=c1[nH]c2sc(Cl)c(-c3ccccc3F)c2c(O)c1-c1ccccc1 [Compound 119] | 101% | * (^+ or *concentration of compound (I) >10 micro Molar) |
| O=c1[nH]c2sc(Cl)c(-c3ccccc3O)c2c(O)c1-c1ccccc1 [Compound 121] | 143% | * (^+ or *concentration of compound (I) >10 micro Molar) |
| Cc1cccc(-c2c(Cl)sc3[nH]c(=O)c(-c4ccccc4)c(O)c23)c1 [Compound 125] | 101% | ** (^++ or **concentration of compound (I) ≦10 micro Molar) |
| O=c1[nH]c2sc(Cl)c(-c3cccc(F)c3)c2c(O)c1-c1ccccc1 [Compound 126] | 98% | * (^+ or *concentration of compound (I) >10 micro Molar) |
| CCOc1cccc(-c2c(Cl)sc3[nH]c(=O)c(-c4ccccc4)c(O)c23)c1 [Compound 127] | 122% | * (^+ or *concentration of compound (I) >10 micro Molar) |
| COc1cccc(-c2c(Cl)sc3[nH]c(=O)c(-c4ccccc4)c(O)c23)c1 [Compound 128] | 181% | * (^+ or *concentration of compound (I) >10 micro Molar) |
| COc1ccc(-c2c(Cl)sc3[nH]c(=O)c(-c4cccc(C#N)c4)c(O)c23)cc1 [Compound 129] | 102% | ** (^++ or **concentration of compound (I) ≦10 micro Molar) |
